Measured values published in the CombiSolv-Exp solvation set (Vermeire and Green 2021).

Assay: solvent given as SMILES

c1ccc(-c2ccccc2)cc1
Details | solvation free energy, 298 K [kcal/mol]
in C1COCCO1 | -9.29
in CC(C)(C)O | -8.06
in CC(C)CC(C)(C)C | -8.32
in CC(C)CC(C)O | -8.13
in CC(C)CCO | -8.16
in CC(C)CO | -8.03
in CC(C)O | -8.09
in CC(C)OCCO | -8.73
in CCC(C)(C)O | -8.3
in CCC(C)O | -8.19
in CCCC(C)CO | -8.24
in CCCC(C)O | -8.25
in CCCCC(CC)CO | -8.27
in CCCCCC | -8.53
in CCCCCCC | -8.54
in CCCCCCCC | -8.53
in CCCCCCCCC=CCCCCCCCC(=O)OCC(COC(=O)CCCCCCCC=CCCCCCCCC)OC(=O)CCCCCCCC=CCCCCCCCC | -8.8
in CCCCCCCCCC | -8.49
in CCCCCCCCO | -8.39
in CCCCCCCO | -8.36
in CCCCCCO | -8.34
in CCCCCO | -8.34
in CCCCOCCCC | -8.85
in CCCCOCCO | -8.65
in CCCO | -8.25
in CCCOCCO | -8.76
in CCO | -8.23
in CCOCC | -8.59
in CCOCCO | -8.74
in CN(C)C=O | -9.33
in CO | -7.88
in COC(C)(C)C | -9.04
in COC(C)CCO | -8.68
in ClC(Cl)(Cl)Cl | -9.22
in ClCCCl | -9.34
in ClCCl | -9.4
in Clc1ccccc1 | -9.26
in O | -2.66

Clc1cc(Cl)c(-c2ccccc2)c(Cl)c1
Details | solvation free energy, 298 K [kcal/mol]
in O | -2.16

COc1nc(NC(C)C)nc(NC(C)C)n1
Details | solvation free energy, 298 K [kcal/mol]
in O | -9.69

CC1=CC2C(CCC(C)=CCC1)C2(C)C (stereo not given)
Details | solvation free energy, 298 K [kcal/mol]
in O | -0.52

Cc1ccc(O)c(C)c1
Details | solvation free energy, 298 K [kcal/mol]
in CCCCCC | -6.51
in CCCCCCC | -6.48
in CCCCCCCC | -6.46
in O | -6.02

C1CC1
Details | solvation free energy, 298 K [kcal/mol]
in C1COCCO1 | -1.94
in CC(C)O | -1.58
in CCCCCC | -1.98
in CCCCO | -1.72
in CCCO | -1.57
in O | 0.75

C1CCOCC1
Details | solvation free energy, 298 K [kcal/mol]
in C1COCCO1 | -4.53
in CC(C)CCl | -4.65
in CCC(C)Cl | -4.65
in CCCCCCCCCCCCCCCC | -3.89
in CCCCCCCCO | -4.34
in CCCCCl | -4.71
in O | -3.12
in [2H]O[2H] | -3.08

NC(=O)c1ccccc1
Details | solvation free energy, 298 K [kcal/mol]
in O | -11

CSC
Details | solvation free energy, 298 K [kcal/mol]
in C=C(C)CC(C)(C)C | -3.04
in C=CCCCC | -3.07
in CC(C)CC(C)(C)C | -2.9
in CCCCCC | -2.97
in ClC(Cl)(Cl)Cl | -3.6
in ClC(Cl)Cl | -4.08
in O | -1.5

O=c1[nH]cc(Cl)c(=O)[nH]1
Details | solvation free energy, 298 K [kcal/mol]
in O | -17.7

CCCCCCC(=O)O
Details | solvation free energy, 298 K [kcal/mol]
in O | -6.12

O=[N+]([O-])c1ccc(Cl)c(Cl)c1Cl
Details | solvation free energy, 298 K [kcal/mol]
in CCCCCCCCC=CCCCCCCCC(=O)OCC(COC(=O)CCCCCCCC=CCCCCCCCC)OC(=O)CCCCCCCC=CCCCCCCCC | -10.1
in O | -4.07

FC(F)(F)F
Details | solvation free energy, 298 K [kcal/mol]
in Brc1ccccc1 | 1.57
in C1CCOC1 | 1
in C1COCCO1 | 1.38
in CC(C)(C)O | 0.8
in CC(C)CC(C)(C)C | 0.56
in CC(C)CO | 1
in CCC(C)O | 1.01
in CCCCCC | 0.49
in CCCCCCC | 0.62
in CCCCCCCC | 0.72
in CCCCCCCC(=O)OCC(COC(=O)CCCCCCC)OC(=O)CCCCCCC | 1.4
in CCCCCCCCC | 0.8
in CCCCCCCCCC | 0.86
in CCCCCCCCCCC | 0.92
in CCCCCCCCCCCC | 0.97
in CCCCCCCCCCCCC | 1.02
in CCCCCCCCCCCCCC | 1.06
in CCCCCCCCCCCCCCC | 1.1
in CCCCCCCCCCCCCCCC | 1.11
in CCCCCCCCCCCO | 1.39
in CCCCCCCCCCO | 1.36
in CCCCCCCCCO | 1.32
in CCCCCCCCO | 1.27
in CCCCCCCO | 1.25
in CCCCCCO | 1.21
in CCCCCO | 1.16
in CCCCO | 1.1
in CCCO | 1.04
in CCO | 0.98
in CN1CCCC1=O | 1.8
in CN(C)C=O | 1.56
in CO | 1
in Cc1ccc(C)cc1 | 1.11
in Cc1cccc(C)c1 | 1.13
in Cc1ccccc1C | 1.21
in ClC(Cl)(Cl)Cl | 0.82
in Clc1ccccc1 | 1.3
in O | 3.13
in O=C1CCCC1 | 1.36
in O=C1CCCCC1 | 1.41

COc1ccccc1OC
Details | solvation free energy, 298 K [kcal/mol]
in O | -5.33

CCCCCN
Details | solvation free energy, 298 K [kcal/mol]
in CCCCCCC | -4.79
in O | -4.13

CCc1ccc2ccccc2c1
Details | solvation free energy, 298 K [kcal/mol]
in O | -2.26

CC1=CC(=O)C(C(C)C)CC1 (stereo not given)
Details | solvation free energy, 298 K [kcal/mol]
in O | -4.51

CC(=O)OC1C2(C)CCC(C2)C1(C)C (stereo not given)
Details | solvation free energy, 298 K [kcal/mol]
in O | -2.69

CCC(C)OC(C)CC (stereo not given)
Details | solvation free energy, 298 K [kcal/mol]
in O | -0.8

Cc1ccc(C)c(O)c1
Details | solvation free energy, 298 K [kcal/mol]
in CCCCCC | -6.46
in CCCCCCC | -6.44
in CCCCCCCC | -6.44
in Cc1ccc(C)cc1 | -7.72
in Cc1cccc(C)c1 | -7.76
in Cc1ccccc1C | -7.8
in O | -5.92

CCCCCOC(C)=O
Details | solvation free energy, 298 K [kcal/mol]
in CCCCCC | -5.57
in CCCCCCC | -5.48
in CCCCCCCC | -5.42
in CCCCCCCCCC | -5.37
in CCCCCCCCCCCCCCCC | -5.24
in CCCCCCCCO | -5.61
in NC=O | -4.32
in O | -2.48
in [2H]O[2H] | -2.55

Clc1cccc(Cl)c1Cl
Details | solvation free energy, 298 K [kcal/mol]
in CCCCCC | -6.92
in CCCCCCCCC=CCCCCCCCC(=O)OCC(COC(=O)CCCCCCCC=CCCCCCCCC)OC(=O)CCCCCCCC=CCCCCCCCC | -7.12
in CCCCCCCCO | -7.08
in O | -1.24

O=C(CCCN1CCC(O)(c2ccc(Cl)cc2)CC1)c1ccc(F)cc1
Details | solvation free energy, 298 K [kcal/mol]
in CCCCOC(C)=O | -19.5
in O | -15.4

Cc1ccncc1
Details | solvation free energy, 298 K [kcal/mol]
in CC(C)CC(C)(C)C | -4.95
in O | -4.94

C=C(C)C
Details | solvation free energy, 298 K [kcal/mol]
in CC(C)(C)O | -2.03
in CC(C)=O | -2.37
in CC(C)CCO | -1.99
in CC(C)CO | -1.98
in CC(C)O | -1.98
in CCC(C)(C)O | -2.09
in CCC(C)CO | -1.98
in CCC(C)O | -1.99
in CCC(O)CC | -2.01
in CCCC(C)O | -2.01
in CCCCC | -2.49
in CCCCCC | -2.43
in CCCCCCC | -2.44
in CCCCCCCC | -2.41
in CCCCCCCCC | -2.39
in CCCCCCCCCC | -2.36
in CCCCCO | -2.01
in CCCCO | -2.17
in CCCO | -2.01
in CCOC(C)=O | -2.55
in CN1CCCC1=O | -1.8
in CN(C)C=O | -1.98
in Cc1ccc(C)cc1 | -2.32
in Cc1cccc(C)c1 | -2.33
in Cc1ccccc1C | -2.31
in ClC(Cl)(Cl)Cl | -2.44
in Ic1ccccc1 | -1.91
in N#Cc1ccccc1 | -1.97
in O | 1.17
in O=CN1CCOCC1 | -1.36
in c1ccccc1 | -2.32

CC(=O)N(C)C
Details | solvation free energy, 298 K [kcal/mol]
in C1CCCCC1 | -4.97
in C=CCCCCCCC=C | -5.22
in CC(C)CC(C)(C)C | -5.19
in CCCCCCCCCCCCCCCC | -4.26
in O | -8.15
in [2H]O[2H] | -7.78
in c1ccccc1 | -6.41
